In patent US11779572B1, “Methods of treating gastrointestinal stromal tumors” (Deciphera Pharmaceuticals, LLC, priority 2022, dated 2023):
Read-outs that look alike come from different tables or passages of the source.

Assays:
[1] = Coadministration with pantoprazole (proton-pump inhibitor); type: in vivo, human; conditions: 40 mg QD pantoprazole with 150 mg QD ripretinib
Description: The effect of a proton-pump inhibitor on the exposure of ripretinib was evaluated.

[2] = Food effect (high-fat meal) on exposure; type: in vivo, human; conditions: 150 mg dose of ripretinib
Description: The effect of a high-fat breakfast on ripretinib and Compound A exposure was evaluated. A high fat meal consisted of approximately 150, 250, and 500-600 calories from protein, carbohydrate, and fat, respectively. […] The food effect is not considered to be clinically significant based on exposure-response analysis. Therefore, ripretinib may be taken with or without food at approximately same time each day.

[3] = Unbound fraction / plasma protein binding; type: in vitro ADME, human; conditions: human, plasma, oral, 50 mg, read-out: unbound fraction fu %
Excerpt: (§1) Both ripretinib and DP-5439 display high binding to plasma proteins in vitro; therefore, clinical samples were collected to investigate the effect of HI on the unbound fraction (fu) % for both analytes. Distributions of individual mean fu % for both ripretinib and DP-5439 show high variability between participants. The ripretinib mean fu % was ≤0.6% in healthy participants and in participants with hepatic impairment. The DP-5439 fu % was ≤0.5% in healthy participants and 0.2% to 1.4% in participants with hepatic impairment. No clear trend could be established between unbound ripretinib and DP-5439 PK parameters and the degrees of HI.

plasma proteins = assay: Unbound fraction / plasma protein binding; type: in vitro ADME, human
Excerpt: as §1

[4] = Observed clinical PK after single and multiple doses; type: in vivo; conditions: human, plasma, oral; SD administration, healthy participants
Description: CYP3A4 inactivation parameters and induction parameters were subsequently incorporated in the model to assess the net effect on drug clearance at steady state. Due to the uncertainty in the in vitro CYP3A4 MBI data and CYP3A4 induction data, a series of sensitivity analysis was performed. […] Therefore, the in vitro CYP3A4 interaction data were used in the final model. The simulated profiles of ripretinib and DP-5439 in virtual participants were compared to the clinical data. […] The predicted mean AUC0-12 values for DP-5439 on Day 1 were within 2-fold (majority within 1.5-fold) of the observed values, except for the 250-mg QD dose. The mean AUC0-12 and Cmax values for DP-5439 on Day 15 were under-predicted. […] For example, the reported AUCs for ripretinib and DP-5439 at the 150-mg QD dose level were 1.66 and 5.29, respectively. […] The mechanisms for the accumulation of DP-5439 were unclear.

[5] = PBPK model of ripretinib and DP-5439 (Simcyp Simulator)
Description: A PBPK model that included a mechanistic absorption model was developed.
Thus, potential auto-induction and auto-inhibition effects were captured within the model.
Single dose (SD) PK data from participants with mild, moderate, and severe HI were used to refine and/or verify the PBPK model. […] Subsequently, the corresponding plasma concentration-time profiles in HI participants were likewise simulated and compared to the observed data.
Predictions of plasma drug concentration-time profiles, clearance and DDIs were performed in the Simcyp Simulator using a population of virtual participants. The default healthy participant population was applied in all simulations involving healthy participants. […] With the exception of demographic data, all parameter values for the healthy participant population were the same as those used for the North European Caucasian population.
For simulations involving cancer participants, the North European Caucasian population was used to accommodate the wider age range observed in this population (19 to 87 years old; median 61 years). Weibull age distribution was applied with alpha and beta values of 5.47 and 66.5 years for male participants and 5.22 and 68.57 years for female participants. Age, height and weight distributions for the simulated virtual participant population were consistent with those from the first-in-human dose-escalation study in cancer patients.
For simulations involving participants with HI, 3 population models have been developed for the Simcyp Simulator and are based on the 3 Child-Pugh categories (CP-A, CP-B and CP-C). […] When reduced hepatic size was also taken into account, overall CYP3A4 expression in CP-A, CP-B and CP-C participants was reduced to 69%, 36% and 20%, respectively, to that of healthy participants.

- plasma exposure when ripretinib is coadministered with pantoprazole [1]: No clinically significant differences
- AUC0-24h higher with a high-fat meal [2]: 47%
- Cmax higher with a high-fat meal [2]: 66%
- fraction unbound ([3]; healthy participants): ≤ 0.005
- fraction unbound ([3]; participants with hepatic impairment): 0.002 to 0.014
- binding to plasma proteins (plasma proteins; in vitro): high binding
- half-life [4]: ~17 h
- all predictions relative to observed ([5]; 150 mg QD dose): ≤ 2 fold
- predicted mean AUC0-12 relative to observed values ([5]; Day 1, except 250-mg QD dose): ≤ 2 fold
SMILES: CCn1c(=O)c(-c2cc(NC(=O)Nc3ccccc3)c(F)cc2Br)cc2cnc(N)cc21 [Compound A]
- impact of HI (albumin, ALP, ALT, AST, bilirubin changes) on unbound exposure (plasma proteins; visual assessment): did not appear to have an impact
